# Columns and labels:
# MOLT-4 = assay: Muse Count & Viability Kit (flow cytometry); settings: for CC50 / Emax: Homo sapiens; for loss of potency in Muse Count & Viability Kit 72 h versus 72 h MTT: MOLT-4
# Protocol: (§6) Cell viability, cell death pattern, cell cycle and detection of PI3K activation were evaluated, and each analysis was performed using specific protocols of the Guava Muse Cell Analyzer.
# (§7) In total, 20 µL of the cell solution was added to 380 µL of the reagent in 1 mL Eppendorf tubes and incubated for 5 min at room temperature in the dark. Samples from three independent experiments carried out in duplicate were read on the cytometer, followed by statistical analysis of the histograms on Prism6 to determine the CC50.
# K562 = assay: MTT cell viability assay; format: cell-based; settings: Homo sapiens, K562, 72 h MTT; for Emax: read-out: Emax (maximum effect at maximum concentration used)
# Protocol: (§1) For the evaluation of cellular cytotoxicity in cancer cell lines, the compounds were tested at concentrations ranging from 0.00003 μM to 150 μM. Immortalized cancer cells were selected: PC-3 (PTEN-mutated prostate adenocarcinoma), MCF-7 (PI3KCA-mutated breast carcinoma), K562 (P53-mutated chronic myeloid leukemia), CCRF-CEM (acute lymphoblastic leukemia with mutation in PTEN) and MOLT-4 (acute lymphoblastic leukemia with mutation in PI3KR1/PTEN). Peripheral blood mononuclear cells (PBMCs) were used to determine the cytotoxic selectivity index (SI). All immortalized cells were cultured in RPMI 1640 medium with 10% (v/v) FBS, streptomycin + penicillin, at 37 °C in a humidified incubator containing 5% CO2.
# (§2) Cell viability was assessed by the MTT assay. The lines selected for this study were plated according to their respective densities, which ranged from 3 × 10^4 to 4 × 10^4 cells per well. Subsequently, they were treated with test compounds at different concentrations (0.00003 μM to 150 μM), gedatolisib and GSK-1059615.
# (§3) After incubation, the plates are centrifuged at 440× g for 10 min. Then, 110 μL of the supernatant was withdrawn and each well received 10μL of the MTT solution. The plate was again incubated in an oven at 37 °C and 5% CO2 for 3 to 4 h. At the end of the incubation time, 100 μL of SDS-HCL detergent was added to solubilize the formazan crystals. The plate was shaken on an automatic overnight shaker and then read at a wavelength of 595 nm on the Molecular Devices Spectramax M5 plate reader.
# PC-3 = assay: MTT cell viability assay; format: cell-based; settings: Homo sapiens, PC-3, 72 h MTT; for CC50: 95% confidence interval in brackets; for Emax: read-out: Emax (maximum effect at maximum concentration used)
# Protocol: as §1, §2, §3
# MCF7 [1] = assay: MTT cell viability assay; format: cell-based; settings: Homo sapiens, MCF7, 72 h MTT; for CC50: 95% confidence interval in brackets; for Emax: read-out: Emax (maximum effect at maximum concentration used)
# Protocol: as §1, §2, §3
# MCF7 [2] = assay: Muse Count & Viability Kit (flow cytometry); design: Emax: dose or concentration left out as unconfirmed
# CCRF-CEM = assay: Muse Count & Viability Kit (flow cytometry); settings: for CC50 / Emax: Homo sapiens
# Protocol: as §6, §7
# CCRF-CEM cell line [3] = assay: Muse Cell Cycle Kit; format: cell-based, human; settings: 48 h
# Protocol: The Guava Muse Luminex® Cell Cycle Kit (catalog n^o MCH100106, Luminex) contains the DNA marker propidium iodide (PI) and RNAse A to avoid nonspecific labelling.
# After 48 h of incubation in an incubator at 37 °C with 5% CO2, 1 mL of the MOLT-4 cell solution and 500 µL of the CCRF-CEM cell solution, contained in the wells, were transferred to Eppendorf tubes and centrifuged at 300× g for 5 min. The volumes used ensured that the cell density remained within the recommended range (1 × 10^6 to 4 × 10^6 cells/mL) at the end of the 48 h incubation period.
# The supernatant was discarded, and the pellet formed was resuspended in 1 mL of saline PBS, homogenised, and centrifuged at 300× g for 5 min. The formed pellet was resuspended in residual PBS by homogenization. To fix cellular events, 1 mL of ice-cold 70% alcohol was added dropwise into the tubes and vortexed at medium speed. The samples were incubated, before staining, for at least 3 h at −20 °C.
# At the end of the incubation time at −20 °C, the samples were centrifuged at 300× g for 5 min, and then the supernatant was discarded and resuspended in 250 µL of PBS. The samples were again centrifuged at 300× g for 5 min and the supernatant discarded, which constituted the washing step. The pellet formed was resuspended in 200 µL of the Guava Muse Luminex® Cell Cycle, and the tubes were incubated for 30 min at room temperature, away from light.
# After incubation, the samples were read in Guava Muse Luminex®, and the data with the histograms generated, which contain information on the percentage of the different phases of the cell cycle, were analysed in the statistical program Prism6. This methodology was performed in duplicate of three independent experiments.
# CCRF-CEM cell line [4] = assay: Muse Annexin V and Dead Cell Kit (phosphatidylserine externalization, membrane integrity); format: cell-based, human; settings: for reduction of cell viability / total apoptosis: CCRF-CEM, at its CC50 value
# Protocol: (§4) For quantitative analysis of live, early and late apoptosis, and cell death on both the CCRF-CEM and MOLT-4 cell lines, treated with gedatolisib and compound 5f (LASSBio-2252), the Muse® Annexin V and Dead Cell Kit was used. Compounds were studied using three concentrations.
# (§5) The Annexin V and Dead Cell Kit (catalog n^o. MCH100105, Luminex) contains Annexin V, a phospholipid marker phosphatidylserine, and the molecule 7-AAD, a DNA marker for cells with a ruptured membrane. […] After incubation for 20 min at room temperature, the samples were read on the cytometer. The data with the histograms generated contain information on the percentage of viable cells, in early apoptosis, late apoptosis and dead cells. Samples from three independent experiments were performed in duplicate, and then statistical analysis was performed using the Prism6 statistical program.
# MOLT-4 cell line = assay: as above; format: cell-based, human
# Protocol: as §4, §5
# [5] = Homo sapiens, CCRF-CEM 48 h, read-out: % of cells, Viable
SMILES,"CC50 (MOLT-4; MOLT-4, 48 h) [µM]","Emax (MOLT-4; MOLT-4, 48 h) [%]","CC50 (MOLT-4; MOLT-4, 72 h) [µM]","Emax (MOLT-4; MOLT-4, 72 h) [%]",loss of potency in Muse Count & Viability Kit 72 h versus 72 h MTT (MOLT-4) [fold],Emax (K562) [%],CC50 (PC-3) [µM],Emax (PC-3) [%],CC50 (MCF7 [1]) [µM],Emax (MCF7 [1]) [%],loss of potency in Muse Count & Viability Kit 72 h versus 72 h MTT (CCRF-CEM) [fold],CC50 (CCRF-CEM; 48 h) [µM],Emax (CCRF-CEM; 48 h) [%],CC50 (CCRF-CEM; 72 h) [µM],Emax (CCRF-CEM; 72 h) [%],reduction of cell viability (CCRF-CEM cell line [4]),total apoptosis (CCRF-CEM cell line [4]),viability at 50 µM (CCRF-CEM cell line [4]; [5]) [%],other results
"c1ccc(N2CCN(c3nc(N4CCCNCC4)nc(N4CCOCC4)n3)CC2)cc1 [5f, 4-(4-(1,4-Diazepan-1-yl)-6-(4-phenylpiperazin-1-yl)-1,3,5-triazin-2-yl)morpholine]",51,90,60.8,92,≤ 10,84,62.1,84,37,91,≤ 10,49,95,53.1,96,about 50%,about 50%,47,"CC50 (K562; 95% confidence interval in brackets): 23.4 µM; cytotoxic activity (MCF7 [2]; MCF-7, Muse Count & Viability Kit, 72 h): inactive; action on the cell cycle (CCRF-CEM cell line [3]; its CC50 value (50 µM)): cell cycle arrest in G0/G1; viability at 5 µM (CCRF-CEM cell line [4]; Homo sapiens, CCRF-CEM 48 h, 5 μM, read-out: % of cells, Viable): 87%; viability at 6 µM (MOLT-4 cell line; Homo sapiens, MOLT-4 48 h, 6 μM, read-out: % de células, Viable): 86%; viability at 60 µM (MOLT-4 cell line; Homo sapiens, MOLT-4 48 h, 60 μM, read-out: % de células, Viable): 20%; reduction of the number of viable cells (MOLT-4 cell line; MOLT-4, tested at 10-fold concentration): 80%; reduction of the number of viable cells (MOLT-4 cell line; MOLT-4, tested at its CC50 value): 14%"
"CN(C)C1CCN(C(=O)c2ccc(NC(=O)Nc3ccc(-c4nc(N5CCOCC5)nc(N5CCOCC5)n4)cc3)cc2)CC1 [Gedatolisib, gedatolisib]",1.65,82,1.15,86,100,64,0.54,80,0.07,87,100,5.88,94,6.15,94,about 50%,about 50%,7,"CC50 (K562; K562, 72 h): > 24 µM; CC50 (K562; K562, 72 h, 95% confidence interval in brackets): 24.1 µM; Emax (MCF7 [2]; Homo sapiens, MCF7, 72 h, read-out: maximum effect (Emax)): 54%; action on the cell cycle (CCRF-CEM cell line [3]; both concentrations tested (0.6 µM and 6 µM)): cell cycle arrest in the G0/G1 phase; viability at 0.6 µM (CCRF-CEM cell line [4]; Homo sapiens, CCRF-CEM 48 h, 0.6 μM, read-out: % of cells, Viable): 68%; viability at 6 µM (CCRF-CEM cell line [4]; Homo sapiens, CCRF-CEM 48 h, 6 μM, read-out: % of cells, Viable): 55%; viability at 0.15 µM (MOLT-4 cell line; Homo sapiens, MOLT-4 48 h, 0.15 μM, read-out: % de células, Viable): 10%; viability at 1.5 µM (MOLT-4 cell line; Homo sapiens, MOLT-4 48 h, 1.5 μM, read-out: % de células, Viable): 11%; viability at 30 µM (MOLT-4 cell line; Homo sapiens, MOLT-4 48 h, 30 μM, read-out: % de células, Viable): 4%; reduction of cell viability (MOLT-4 cell line; MOLT-4, concentration 10 times lower than its CC50): 90%"
